Measurements published in patent US6686361B2, “R-6-hydroxy-buspirone” (Bristol-Myers Squibb Company, priority 2001, dated 2004).
pKi: −log10 of the molar value.

Assays:
[1] = tested on: rat pup ultrasonic vocalizations; assay: Rat pup isolation-induced ultrasonic vocalization test; assay type: in vivo; conditions: rat pups; for anxiolytic activity (ultrasonic vocalizations): 0.3 and 1 mg/kg s.c.
Method: Harlan Sprague-Dawley rat pups (male and female) were housed in polycarbonate cages with the dam until 9-11 days old. Thirty minutes before testing, pups were removed from the dam, placed into a new cage with a small amount of home bedding and brought into the lab and placed under a light to maintain body temperature at 37° C. Pups were then weighed, sexed, marked and returned to the litter group until behavioral assessment. Testing took place in a Plexiglas recording chamber that contained a metal plate maintained at (18-20° C.) with a 5×5 cm grid drawn on the plate. A microphone was suspended 10 cm above the plate to record ultrasonic vocalizations. Ultrasonic calls were recorded using the Noldus UltraVox system providing online analysis of the frequency and duration of calls. The number of grid cells entered by the pup was also collected by visual scoring. […] Immediately following the collection of the baseline measures, pups were injected with vehicle or drug subcutaneously at the nape of the neck and returned to its littermates. Thirty minutes later, pups were retested on each of the dependent measures (vocalization and grid cell crossings) to assess drug effects. Unless otherwise specified, each pup was used only once. Baseline differences and percent change from baseline for the frequency of ultrasonic vocalizations and grid cell crossings were analyzed using a one-way ANOVA. Bonferroni/Dunn post hoc comparisons were performed to assess the acute drug effects with vehicle control. Log-probit analysis was used to estimate the dose (milligrams per kilogram) of each agonist predicted to inhibit isolation-induced ultrasonic vocalizations by 50% (ID50). All comparison were made with an experimental type I error rate (α) set at 0.05.
Doses for each drug were administered in an irregular order across several litters. R-6-hydroxy-buspirone and racemic 6-hydroxy-buspirone were dissolved in physiological saline (0.9% NaCl; vehicle). All injections were administered subcutaneously in a volume of 10 ml/kg. Doses of the drug refer to weight of the salt.

human 5-HT1A receptor [2] = target: T1, human 5-HT1A receptor (Homo sapiens, UniProt P08908); conditions: preclinical studies, background; cited from earlier work
T1 construct: expressed in transfected cells; host or cells: HEK293
T1 sequence (P08908 1-422): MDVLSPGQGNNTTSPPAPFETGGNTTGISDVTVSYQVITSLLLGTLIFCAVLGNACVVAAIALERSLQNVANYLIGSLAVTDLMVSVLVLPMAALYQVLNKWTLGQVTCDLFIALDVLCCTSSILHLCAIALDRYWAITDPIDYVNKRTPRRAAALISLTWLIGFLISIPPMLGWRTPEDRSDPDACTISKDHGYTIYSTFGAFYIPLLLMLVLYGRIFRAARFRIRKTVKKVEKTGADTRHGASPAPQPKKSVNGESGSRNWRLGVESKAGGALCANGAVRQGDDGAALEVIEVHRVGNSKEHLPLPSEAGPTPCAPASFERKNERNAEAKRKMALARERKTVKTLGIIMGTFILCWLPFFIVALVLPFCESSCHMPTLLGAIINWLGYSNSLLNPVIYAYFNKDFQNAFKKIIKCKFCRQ

[3] = tested on: rat pup ultrasonic vocalizations; conditions: functional testing, background; cited from earlier work
human 5-HT1A receptor [4] = target: T1, human 5-HT1A receptor; assay: 5-HT1A receptor binding assay; conditions: human 5-HT1A receptor expressed in HEK293 cells, 3H-8-OH-DPAT
Method: Membranes are prepared for binding using the human 5-HT1 A receptor expressed in HEK293 cells. Cells are collected and ruptured using a dounce homogenizer. The cells are spun at 18000×g for 10 minutes and the pellet is resuspended in assay buffer, frozen in liquid nitrogen and kept at −80° C. until the day of the assay.
A total of 30 ug protein is used per well. The assay is carried out in 96-deep-well plates. The assay buffer is 50 mM HEPES containing 2.5 mM MgCl2 and 2 mM EGTA. The membrane preparation is incubated at 25° C. for 60 minutes with 0.1 nM to 1000 nM test compound and 1 nM 3H-8-OH-DPAT. […] serotonin serves as blocking agent to determine non-specific binding. The reaction is terminated by the addition of 1 ml of ice cold 50 mM HEPES buffer and rapid filtration through a Brandel Cell Harvester using Whatman GF/B filters. The filter pads are counted in an LKB Trilux liquid scintillation counter. IC50 values are determined using non-linear regression by Excel-fit.

D2(h) = D2(h) (Homo sapiens, UniProt P14416); assay: Receptor binding, D2(h)
Sequence of D2(h) (P14416 whole entry): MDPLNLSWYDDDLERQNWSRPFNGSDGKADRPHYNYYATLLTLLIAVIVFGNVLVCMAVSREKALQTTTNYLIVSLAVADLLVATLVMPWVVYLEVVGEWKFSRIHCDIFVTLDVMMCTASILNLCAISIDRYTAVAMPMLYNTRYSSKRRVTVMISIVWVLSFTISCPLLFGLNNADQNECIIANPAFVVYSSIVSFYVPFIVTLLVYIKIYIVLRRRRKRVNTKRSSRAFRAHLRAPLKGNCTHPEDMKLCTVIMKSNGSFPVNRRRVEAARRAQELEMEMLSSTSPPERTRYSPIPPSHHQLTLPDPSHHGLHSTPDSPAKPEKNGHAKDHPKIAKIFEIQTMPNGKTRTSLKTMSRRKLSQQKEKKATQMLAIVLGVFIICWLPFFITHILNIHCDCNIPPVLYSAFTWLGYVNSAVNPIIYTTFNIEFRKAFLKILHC

| pKi (human 5-HT1A receptor [4]) | pKi (D2(h)) | SMILES | anxiolytic activity (ultrasonic vocalizations) [1] | animal movement, measured by crossing grid boundary lines ([1]; compared to animals dosed with the single enantiomer) | affinity for the human 5-HT1A receptor (human 5-HT1A receptor [2]) | anxiolytic response in the rat pup ultrasonic vocalization test [3] |
| --- | --- | --- | --- | --- | --- | --- |
| – | – | O=C1CC2(CCCC2)C(O)C(=O)N1CCCCN1CCN(c2ncccn2)CC1 (racemic) [6-hydroxy-buspirone] | Statistically significant anxiolytic activity | appeared to be reduced | strong affinity | dose-dependent anxiolytic response |
| 7.85 | 5.54 | O=C1CC2(CCCC2)[C@@H](O)C(=O)N1CCCCN1CCN(c2ncccn2)CC1 [R-6-hydroxy-buspirone] | Statistically significant anxiolytic activity | – | – | – |
| 7.62 | 5.89 | O=C1CC2(CCCC2)[C@H](O)C(=O)N1CCCCN1CCN(c2ncccn2)CC1 [S-6-hydroxy-buspirone] | – | – | – | – |
